According to US20140193831A1, “SEED TRAIT PREDICTION BY ACTIVITY-BASED PROTEIN PROFILING” (GAUTIER SEMENCES, priority 2011, published 2014):

Columns and labels:
diagnostic marker 4 = test: Single seed-ABPP of unprimed and primed tomato seeds with MV151 (FIG. 17); type: biochemical; conditions: 4 hours, Tris pH 7.5
Source text: A: Structure of MV151 (see also FIG. 7). This probe consists of a vinylsulfonate (VS) reactive groups, a leucine tripeptide binding group as linker, and a fluorescence bodipy reporter tag (left grey circle) (MV151: Verdoes et al., (2006) Chem. Biol. 13: 1217-1226). B: MV151 was used for detection of a diagnostic marker for primed seeds in tomato. […] Proteins were separated on 14% protein gels and analyzed by scanning for fluorescent proteins (ex 532 nm/em 575 nm) and stained with coomassie. […] This is an Example of successful identification of primed seeds by ABPP of the present invention without need for germination of the seeds.

seed proteins = test: ABPP labelling of a tomato seed extract with four fluorescent probes in parallel (FIG. 2); type: biochemical; conditions: plant seed extract, 2 μM probe, buffers NaOAc pH 5.5 or Tris pH 7.6 with 1 mM DTT

COc1ccc(C2=[N+]3C(=Cc4c(C)c(CCC(=O)NCCCCCC(=O)NCCCCCC(=O)NCCCCCC(=O)N[C@@H](CC(C)C)C(=O)N[C@@H](CC(C)C)C(=O)N[C@H](/C=C/S(C)(=O)=O)CC(C)C)c(C)n4[B-]3(F)F)C=C2)cc1 [MV151]
seeds in which diagnostic marker 4 is detected (diagnostic marker 4; primed A1 seeds, 14 of 14, 2 μM probe): 100% | seeds in which diagnostic marker 4 is detected (diagnostic marker 4; unprimed A1 seeds, 4 of 14, 2 μM probe): 36% | labelling of seed proteins on fluorescence gel (seed proteins): Robust labelling
